Earlier results as cited in patent US20230018600A1, “CONTROLLED RELEASE FORMULATIONS COMPRISING DROTAVERINE OR SALT THEREOF” (priority 2020, published 2023).

Key:
[1] = not given; remark: listed apart in the source
[2] = system: human isolated detrusor muscle; details: induced plateau of contraction

Structure (SMILES): CCOc1ccc(/C=C2\NCCc3cc(OCC)c(OCC)cc32)cc1OCC [Drotaverine, (Z)-1-(3,4-diethoxybenzylidene)-6,7-diethoxy-1,2,3,4-tetrahydroisoquinoline]
- renal clearance as share of total plasma clearance (IR Drotaverine Tablets 80 mg): 0.31+/−0.13%
- onset of action (after oral administration of 80 mg strength IR tablets): ≤ 12 min
- drug absorption from small intestine (oral, 80 mg IR tablets): ~90%
- absolute bioavailability, range (oral, IR tablets 80 mg, subject-dependent range): 24.5-91%
- oral LD50 [1]: > 1000 mg/Kg body weight
- relaxation of human detrusor muscle contraction [2]: significant concentration-dependent relaxation
